Experimental data as given in patent EP0096116B1, “Thiophene derivative having a mucoregulating and anticough activity, process for its preparation and pharmaceutical compositions containing it” (AUSONIA FARMACEUTICI S.r.l., priority 1982, dated 1983).

Experiments:
male Wistar rats = assay: Bronchosecretogogue activity (Mawatari technique); type: in vivo, rat; conditions: 500 mg/kg/os, FlNa = Sodium fluoresceine
Text: The broncosecretogogue activity has been determined in male Wistar rats by per os administration according to the method of Mawatari [Mawatari H., Kagoshima Daigaku, Igaku-Zasshi, 27, 561 (1976)], comparing I with carboxymethylcysteine, sobrerol and guaiphenesin at the doses hereinafter stated.

[1] = system: tracheo-bronchial mucus from rabbits; assay: Fluidifying activity in vivo, microviscosimeter on tracheo-bronchial mucus; conditions: 500 mg/kg/os, rabbit
Text: The fluidifying effect has been determined with the microviscosimeter on the tracheo-bronchial mucus from rabbits after administration by oral route, comparing I with sobrerol, at the doses hereinafter stated.

[2] = Pharmacokinetic tests after oral administration; type: in vivo; conditions: oral administration of I and sobrerol in equimolar doses, in the animal
[3] = Acute toxicity (method of Litchfield and Wilcoxon), rat; conditions: Wistar, in vivo
Text: (§1) The acute toxicity has been determined in Swiss mouses and in Wistar rats for different administration routes, according to the method of Litchfield J. T. and Wilcoxon [J. Pharm. Exp. Therap. 96,99-113 (1949)].

[4] = Acute toxicity (method of Litchfield and Wilcoxon), mouse; conditions: Swiss, in vivo
Text: as §1

[5] = Solubility of the isolated compound; type: physicochemical
Text: 73 Grams of an oil, impossible to crystallize but perfectly pure in TLC, are obtained.

Row | Compound | % Increase of FlNa in comparison with controls (male Wistar rats) | % Reduction of the mucus viscosity [1] | sobrerol concentrations at pulmonary level [2] | LD50 ([3]; ip) | LD50 ([3]; oral, os) | LD50 ([4]; ip) | LD50 ([4]; oral, os) | solubility in the common organic solvents ([5]; common organic solvents) | solubility in water ([5]; water)
1 | CC1=CCC(C(C)(C)O)CC1O (centres unmarked) [Sobrerol, 2-methyl-5-(1-hydroxy-1-methyl-ethyl)-2-cyclohexen-1-ol, reference compound] | 33.4% | 15.6% |  |  |  |  |  |  | 
2 | CC1=CCC(C(C)(C)O)CC1OC(=O)c1cccs1 (centres unmarked) [Compound I, thiophen-2-carboxylate of 2-methyl-5-(1-hydroxy-1-methylethyl)-cyclohexen-2-yl] | 76.4% | 39.8% | higher sobrerol concentrations at pulmonary level | 2650 mg/kg | > 4000 mg/kg | 2500 mg/kg | > 4000 mg/kg | soluble in the common organic solvents | almost insoluble in water
